Laboratory results reported in article PMC5510229, “BCAT1 controls metabolic reprogramming in activated human macrophages and is associated with inflammatory diseases” (Nature Communications, 2017).

Legend:
[1] = Uptake and metabolism of ERG240 in human macrophage lysates by GC/MS; format: in vitro ADME
Text: (§1) NCOMMS-16-23550_Point by Point Responses Papathanassiu et al.
Add additional explanation for “extracellular space” findings because this is unclear.
Authors’ reply. ‘Extracellular space’ has now been replaced by ‘extracellular matrix genes’ in the revised manuscript (Figure 3 in the submitted manuscript which is now Figure 4 in the revised one). We have also added a Volcano plot showing the differentially expressed genes (Figure 4E in the revised manuscript).
Authors fail to cite and discuss this paper found in quick google search “ Nemeth, B.; Doczi, J.; Csete, D.; Kacso, G.; Ravasz, D.; Adams, D.; Kiss, G.; Nagy, A. M.; Horvath, G.; Tretter, L.; Mocsai, A.; Csepanyi-Komi, R.; Iordanov, I.; Adam-Vizi, V.; Chinopoulos, C. (2015).
“Abolition of mitochondrial substrate-level phosphorylation by itaconic acid produced by LPS-induced Irg1 expression in cells of murine macrophage lineage”. The FASEB Journal.
Authors’ reply. This paper is now cited and discussed by adding this following paragraph to the discussion (highlighted text).
Besides its antimicrobial effects, itaconate has been proposed as an inhibitor of substrate level phosphorylation (SLP) through its effect on succinate-CoA ligase in RAW-264.7 cells1.
Statistical analysis (or indications in figures) is lacking in Fig 1C. Fig 4C.
Authors’ reply. Statistical analyses are added for Fig 1C and 4C. Please note that Figure
4C is now Figure 5C in the revised manuscript. (See also highlighted text in figure legends).
Dosing in vitro should be discussed further- 20mM in vitro is a high dose if IC50 is in nM […]
Authors’ reply. ERG240 is a structural analogue of leucine, designed based on the X-ray crystal structure of BCAT1 and, as the reviewer correctly states, it can inhibit BCAT1 within 0.1-1nM range of IC50. The concentration of 20 mM used in the cellular assays is because […]
possible competition with leucine, which is in mM concentration (0.381 mM) in the RPMI media used throughout the study. […]
A cartoon of metabolites regulated would aid the reader. […]
ERG240 can easily be detected […]

[2] = Blood brain barrier crossing
Text: as §1
6. It would be interesting to know why the half -life in animals is very low. Again, is the drug metabolized by the organism? (see also point 3).
Authors’ reply. The pharmacokinetic study that determined the half -life of the drug in mice […]
ERG240 is completely absorbed and not subject to first -pass metabolism. Since the drug is structurally a leucine analogue, it is likely to be uptaken by the ubiquitously expressed amino acid transporter LAT1. In that light, the low half -life of the drug is related to its complete and swift absorption by various sites rather to a phase I or II metabolic reaction. ERG240 is also […]
preferentially in the brain. […]
metabolism of the drug in human macrophages, please see the response to point 3, which […]
7. Leucine is degraded to acetyl -Coa and acetoacetate both fueling cellular acetyl -Coa pools. Does decreased activity of BCAT1 impact cellular acetyl -Coa and citrate levels? Itaconate synthesis is a sink for citrate and diverts carbon away from the TCA cycle. […]
have measured citrate levels in 4 donors following LPS and LPS + ERG240 treatment for 3 hours by GC-MS. […]
Itaconate levels measured by GC/MS were further confirmed in si-BCAT1 and si-Control MDMs from independent donors (n=4, left panel). […]

CC(=O)C(C)CCC(=O)O (centres unmarked) [ERG240]
uptake of the compound by cells ([1]; 1x10^6 cells treated with 3.28 mg ERG240 (20 mM)): 0.8 to 3 ng
estimated intracellular ERG240 concentration ([1]; human macrophages treated with 20 mM): 70 to 260 nM
cellular metabolism of the drug ([1]; lysates of human macrophages, GC/MS): does not undergo any cellular metabolic reaction
accumulation in the brain [2]: does not accumulate
crossing of the blood brain barrier [2]: capable of crossing the blood brain barrier
